Test results reported in patent publication US7265126B2, “Diaza-spiropiperidine derivatives” (Hoffmann-La Roche Inc., priority 2004, dated 2007).
Values joined by “and” are separate entries in the source; they are usually repeats but may differ in a detail not shown here. Equal entries are not always repeated. Where two headings read alike, the source gives them in different places.

Legend:
[1] = biological target: T1, GlyT-1 (Homo sapiens, UniProt P48067); experiment: GlyT-1 inhibition, human; assay type: cell-based
T1 sequence (P48067 1-706): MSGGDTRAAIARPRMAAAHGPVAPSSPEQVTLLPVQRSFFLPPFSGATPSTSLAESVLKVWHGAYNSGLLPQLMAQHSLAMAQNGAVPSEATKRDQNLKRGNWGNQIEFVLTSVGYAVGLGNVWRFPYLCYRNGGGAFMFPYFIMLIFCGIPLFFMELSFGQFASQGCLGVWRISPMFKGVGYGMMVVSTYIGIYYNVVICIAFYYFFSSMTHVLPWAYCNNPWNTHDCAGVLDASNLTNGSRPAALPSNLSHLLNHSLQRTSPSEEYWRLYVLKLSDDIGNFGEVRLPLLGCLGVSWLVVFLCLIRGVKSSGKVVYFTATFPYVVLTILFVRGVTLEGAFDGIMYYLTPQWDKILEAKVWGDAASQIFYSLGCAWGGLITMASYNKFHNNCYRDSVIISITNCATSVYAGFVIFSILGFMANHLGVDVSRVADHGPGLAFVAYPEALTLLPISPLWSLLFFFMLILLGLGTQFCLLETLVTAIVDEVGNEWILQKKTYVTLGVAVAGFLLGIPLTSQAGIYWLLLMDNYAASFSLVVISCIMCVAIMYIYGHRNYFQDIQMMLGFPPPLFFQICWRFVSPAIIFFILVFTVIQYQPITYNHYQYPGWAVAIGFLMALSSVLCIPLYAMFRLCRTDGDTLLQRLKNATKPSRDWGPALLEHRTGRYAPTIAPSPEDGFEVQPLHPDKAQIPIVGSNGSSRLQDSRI
Experimental: On day 1 mammalian cells, (Flp-in™-CHO), transfected with mGlyT-1b cDNA , were plated at the density of 40,000 cells/well in complete F-12 medium, without hygromycin in 96-well culture plates. On day 2, the medium was aspirated and the cells were washed twice with uptake buffer (UB). The cells were then incubated for 20 min at 22° C. with either (i) no potential competitor, (ii) 10 mM non-radioactive glycine , (iii) a concentration of a potential inhibitor. […] A solution was then immediately added containing [^3H]-glycine 60 nM (11-16 Ci/mmol) and 25 µM non-radioactive glycine. The plates were incubated with gentle shaking and the reaction was stopped by aspiration of the mixture and washing (three times) with ice-cold US. The cells were lysed with scintillation liquid, shaken 3 hours and the radioactivity in the cells was coounted using a scintillation counter.

[2] = biological target: T2, mGlyT-1b (Mus musculus, UniProt P28571); experiment: Glycine uptake inhibition assay (mGlyT-1b); assay type: cell-based
T2 construct: host or cells: Flp-in-CHO
T2 sequence (P28571 1-651 isoform P28571-2): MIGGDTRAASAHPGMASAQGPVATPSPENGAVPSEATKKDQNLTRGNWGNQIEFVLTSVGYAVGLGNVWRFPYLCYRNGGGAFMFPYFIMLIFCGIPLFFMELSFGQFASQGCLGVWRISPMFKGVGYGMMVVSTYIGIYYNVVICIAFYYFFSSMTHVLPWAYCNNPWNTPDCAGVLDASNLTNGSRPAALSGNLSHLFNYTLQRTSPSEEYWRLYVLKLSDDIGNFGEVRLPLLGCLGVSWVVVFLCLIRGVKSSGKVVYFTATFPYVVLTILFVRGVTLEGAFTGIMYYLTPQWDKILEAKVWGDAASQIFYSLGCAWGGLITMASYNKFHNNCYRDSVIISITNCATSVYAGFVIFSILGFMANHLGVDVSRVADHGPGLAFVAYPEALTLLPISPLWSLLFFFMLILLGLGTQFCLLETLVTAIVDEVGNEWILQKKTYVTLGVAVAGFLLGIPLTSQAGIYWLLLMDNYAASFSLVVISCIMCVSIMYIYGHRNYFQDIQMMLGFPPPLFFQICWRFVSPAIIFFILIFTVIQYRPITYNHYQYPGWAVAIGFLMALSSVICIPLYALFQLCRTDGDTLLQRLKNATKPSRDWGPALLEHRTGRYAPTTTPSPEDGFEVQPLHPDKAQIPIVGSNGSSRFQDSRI
Experimental: DMEM complete medium: Nutrient mixture F-12 (Gibco Life-technologies), fetal bovine serum (FBS) 5%, (Gibco life technologies), Penicillin/Streptomycinl % (Gibco life technologies), Hygromycin 0.6 mg/ml (Gibco life technologies), Glutamine 1 mM Gibco life technologies)
Uptake buffer (UB): 150 mM NaCl, 10 mM Hepes-Tris, pH 7.4, 1 mM CaCl2, 2.5 mM KCl, 2.5 mM MgSO4, 10 mM (+) D-glucose.
Flp-in™-CHO (Invitrogen Cat no. R758-07)cells stably transfected with mGlyT1b cDNA.
Glycine Uptake Inhibition Assay (mGlyT-1b)

Cc1ccc(C2CNC(=O)C23CCN(C2(c4ccc(F)cc4)CCCCC2)CC3)cc1 (racemic) [Example 52, rac 8-[1-(4-Fluoro-phenyl)-cyclohexyl]4-p-tolyl-2,8-diaza-spiro [4.5]decan-1-one]
IC50 ([1]; GlyT-1 Racemat Mouse/human): 73 nM

O=C1NCC(c2ccc(F)cc2)C12CCN(C1(c3ccsc3)CCCCC1)CC2 (racemic) [Example 38, rac-4-(4-Fluoro-phenyl)-8-(1-thiophen-3-yl-cyclohexyl)-2,8-diaza-spiro[4.5]decan-1-one]
IC50 ([2]; GlyT-1 Enant. Mouse/human): 99 nM and 213 nM | IC50 ([2]; GlyT-1 Racemat Mouse/human): 99 nM

O=C1NCC(c2ccc(F)cc2)C12CCN(C1(c3ccc(F)cc3)CCCCCC1)CC2 (racemic) [Example 50, rac4-(4-Fluoro-phenyl)-8-[1-(4-fluoro-phenyl)-cycloheptyl]-2,8-diaza-spiro[4.5]decan-1-one]
IC50 [2]: 81 nM | IC50 ([2]; second-listed enantiomer, mouse value (before the slash), read-out: GlyT-1 Enant. Mouse/human): 153 nM | IC50 ([1]; racemate, human value (after the slash), read-out: GlyT-1 Racemat Mouse/human): 132 nM
